Laboratory results from patent US6737383B1, “Herbicidal oxadiazolidines” (priority 1999, dated 2004).

Columns and labels:
bedstraw = test: Test B pre/postemergence bedstraw; type: in vivo, Galium aparine; details: Postemergence
Method in brief: (§1)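 Test chemicals in a non-phytotoxic solvent mixture with surfactant were sprayed preemergence onto planted seeds and postemergence onto plants 2 to 18 cm tall (1- to 4-leaf stage). After twelve to sixteen days in a greenhouse, injury was visually rated against untreated controls from 0 (no effect) to 10 (complete control).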

blackgrass = test: Test B pre/postemergence blackgrass; type: in vivo, Alopecurus myosuroides
Method in brief: as §1

surinam grass = test: Test B pre/postemergence surinam grass; type: in vivo, Brachiaria decumbens
Method in brief: as §1

cocklebur = test: Test B pre/postemergence cocklebur; type: in vivo, Xanthium strumarium
Method in brief: as §1

corn = test: Test B pre/postemergence corn; type: in vivo, Zea mays
Method in brief: as §1

crabgrass = test: Test B pre/postemergence crabgrass; type: in vivo, Digitaria sanguinalis
Method in brief: as §1

giant foxtail = test: Test B pre/postemergence giant foxtail; type: in vivo, Setaria faberii
Method in brief: as §1

rape = test: Test B pre/postemergence rape; type: in vivo, Brassica napus
Method in brief: as §1

soybean = test: Test B pre/postemergence soybean; type: in vivo, Glycine max
Method in brief: as §1

sugar beet = test: Test B pre/postemergence sugar beet; type: in vivo, Beta vulgaris
Method in brief: as §1

velvetleaf = test: Test B pre/postemergence velvetleaf; type: in vivo, Abutilon theophrasti
Method in brief: as §1

wheat = test: Test B pre/postemergence wheat; type: in vivo, Triticum aestivum
Method in brief: as §1

purple nutsedge = test: Test B pre/postemergence purple nutsedge; type: in vivo, Cyperus rotundus
Method in brief: as §1

rice = test: Test B flood test rice; type: in vivo, Oryza sativa
Method in brief: (§2)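 Read-out is a visual response score from 0 (no effect) to 10 (complete control), assigned by comparison with untreated controls. Treatment was applied at the 2-leaf stage, and plants stayed in the greenhouse for twelve to sixteen days before scoring.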

smallflower flatsedge = test: Test B flood test smallflower flatsedge; type: in vivo, Cyperus difformis
Method in brief: as §2

duck salad = test: Test B flood test duck salad; type: in vivo, Heteranthera limosa
Method in brief: as §2

bamyardgrass = test: Test B flood test barnyardgrass; type: in vivo, Echinochloa crus-galli
Method in brief: as §2

[1] = Postemergence, Rate 250 g/ha, scale 0 to 10
[2] = Postemergence, Rate 500 g/ha, scale of 0 to 10 where 0 is no effect and 10 is complete control
[3] = Preemergence, Rate 62 g/ha, scale of 0 to 10 where 0 is no effect and 10 is complete control
[4] = Preemergence, Rate 125 g/ha, scale of 0 to 10 where 0 is no effect and 10 is complete control
[5] = Preemergence, Rate 250 g/ha, scale 0 to 10, 0 is no effect, 10 is complete control
[6] = Preemergence, Rate 500 g/ha, scale 0 to 10, 0 is no effect, 10 is complete control
[7] = Rate 62 g/ha, Postemergence, scale 0 to 10 (0 no effect, 10 complete control)
[8] = Rate 125 g/ha, Postemergence, scale 0 to 10, 0 is no effect, 10 is complete control
[9] = Postemergence block (flood test species), Rate 250 g/ha, scale 0 to 10
[10] = Postemergence section (flood test species), Rate 500 g/ha, scale of 0 to 10 where 0 is no effect and 10 is complete control
[11] = Rate 62 g/ha, Postemergence (flood test), scale 0 to 10, 0 no effect, 10 complete control
[12] = Rate 125 g/ha, Postemergence section (flood test species), scale 0 to 10, 0 is no effect, 10 is complete control

## CC(C)N(C(=O)n1oc(=O)n(CC(=O)N(C)C)c1=O)c1ccc(F)cc1F [Compound 440]
bedstraw; Rate 250 g/ha, scale 0 to 10
  Bedstraw plant response rating: 2
bedstraw; Rate 125 g/ha, scale 0 to 10, 0 is no effect, 10 is complete control
  Bedstraw plant response rating: 0
blackgrass; [1]
  Blackgrass plant response rating: 4
blackgrass; [2]
  Blackgrass plant response rating: 8
blackgrass; [3]
  Plant response rating, Blackgrass: 2
blackgrass; [4]
  Plant response rating, Blackgrass: 6
blackgrass; [5]
  Blackgrass plant response rating: 10
blackgrass; [6]
  Blackgrass plant response rating: 10
blackgrass; [7]
  Blackgrass plant response rating: 0
blackgrass; [8]
  Blackgrass plant response rating: 0
Surinam grass; Postemergence, Rate 250 g/ha, scale 0 to 10, 0 no effect, 10 complete control
  B. signalgrass plant response rating: 2
Surinam grass; [2]
  B. signalgrass plant response rating: 8
Surinam grass; [3]
  Plant response rating, B. signalgrass: 1
Surinam grass; [4]
  Plant response rating, B. signalgrass: 4
Surinam grass; [5]
  B. signalgrass plant response rating: 8
Surinam grass; [6]
  B. signalgrass plant response rating: 8
Surinam grass; [7]
  B. signalgrass plant response rating: 0
Surinam grass; [8]
  B. signalgrass plant response rating: 0
cocklebur; [1]
  Cocklebur plant response rating: 0
cocklebur; [2]
  Cocklebur plant response rating: 0
cocklebur; [4]
  Plant response rating, Cocklebur: 0
cocklebur; [5]
  Cocklebur plant response rating: 0
cocklebur; [6]
  Cocklebur plant response rating: 0
cocklebur; [7]
  Cocklebur plant response rating: 0
cocklebur; [8]
  Cocklebur plant response rating: 0
corn; [1]
  Corn plant response rating: 0
corn; [2]
  Corn plant response rating: 0
corn; [3]
  Plant response rating, Corn: 0
corn; [4]
  Plant response rating, Corn: 0
corn; [5]
  Corn plant response rating: 0
corn; [6]
  Corn plant response rating: 0
corn; [7]
  Corn plant response rating: 0
corn; [8]
  Corn plant response rating: 0
crabgrass; [1]
  Crabgrass plant response rating: 9
crabgrass; [2]
  Crabgrass plant response rating: 9
crabgrass; [3]
  Plant response rating, Crabgrass: 7
crabgrass; [4]
  Plant response rating, Crabgrass: 7
crabgrass; [5]
  Crabgrass plant response rating: 10
crabgrass; [6]
  Crabgrass plant response rating: 10
crabgrass; [7]
  Crabgrass plant response rating: 1
crabgrass; [8]
  Crabgrass plant response rating: 2
Giant foxtail; [1]
  Giant foxtail plant response rating: 9
Giant foxtail; [2]
  Giant foxtail plant response rating: 9
Giant foxtail; [3]
  Plant response rating, Giant foxtail: 6
Giant foxtail; [4]
  Plant response rating, Giant foxtail: 6
Giant foxtail; [5]
  Giant foxtail plant response rating: 10
Giant foxtail; [6]
  Giant foxtail plant response rating: 10
Giant foxtail; [7]
  Giant foxtail plant response rating: 0
Giant foxtail; [8]
  Giant foxtail plant response rating: 4
rape; [1]
  Rape plant response rating: 0
rape; [2]
  Rape plant response rating: 0
rape; [3]
  Plant response rating, Rape: 0
rape; [4]
  Plant response rating, Rape: 0
rape; [5]
  Rape plant response rating: 3
rape; [6]
  Rape plant response rating: 3
rape; [7]
  Rape plant response rating: 0
rape; [8]
  Rape plant response rating: 0
soybean; [1]
  Soybean plant response rating: 6
soybean; [2]
  Soybean plant response rating: 7
soybean; [3]
  Plant response rating, Soybean: 0
soybean; [4]
  Plant response rating, Soybean: 0
soybean; [5]
  Soybean plant response rating: 0
soybean; [6]
  Soybean plant response rating: 0
soybean; [7]
  Soybean plant response rating: 5
soybean; [8]
  Soybean plant response rating: 6
Sugar beet; [1]
  Sugarbeets plant response rating: 0
Sugar beet; [2]
  Sugarbeets plant response rating: 2
Sugar beet; [3]
  Plant response rating, Sugarbeets: 0
Sugar beet; [4]
  Plant response rating, Sugarbeets: 0
Sugar beet; [5]
  Sugarbeets plant response rating: 4
Sugar beet; [6]
  Sugarbeets plant response rating: 7
Sugar beet; [7]
  Sugarbeets plant response rating: 0
Sugar beet; [8]
  Sugarbeets plant response rating: 0
velvetleaf; [1]
  Velvetleaf plant response rating: 0
velvetleaf; [2]
  Velvetleaf plant response rating: 2
velvetleaf; [3]
  Plant response rating, Velvetleaf: 0
velvetleaf; [4]
  Plant response rating, Velvetleaf: 0
velvetleaf; [5]
  Velvetleaf plant response rating: 0
velvetleaf; [6]
  Velvetleaf plant response rating: 7
velvetleaf; [7]
  Velvetleaf plant response rating: 0
velvetleaf; [8]
  Velvetleaf plant response rating: 0
wheat; [1]
  Wheat plant response rating: 0
wheat; [2]
  Wheat plant response rating: 4
wheat; [3]
  Plant response rating, Wheat: 0
wheat; [4]
  Plant response rating, Wheat: 0
wheat; [5]
  Wheat plant response rating: 5
wheat; [6]
  Wheat plant response rating: 7
wheat; [7]
  Wheat plant response rating: 0
wheat; [8]
  Wheat plant response rating: 0
Purple nutsedge; [1]
  Nutsedge plant response rating: 0
Purple nutsedge; [2]
  Nutsedge plant response rating: 0
Purple nutsedge; [3]
  Plant response rating, Nutsedge: 0
Purple nutsedge; [4]
  Plant response rating, Nutsedge: 0
Purple nutsedge; [5]
  Nutsedge plant response rating: 0
Purple nutsedge; [7]
  Nutsedge plant response rating: 0
Purple nutsedge; [8]
  Nutsedge plant response rating: 0
rice; [9]
  Rice plant response rating: 0
rice; [10]
  Rice plant response rating: 0
rice; [11]
  Rice plant response rating: 0
rice; [12]
  Rice plant response rating: 0
Smallflower flatsedge; [9]
  S. Flatsedge plant response rating: 0
Smallflower flatsedge; [10]
  S. Flatsedge plant response rating: 0
Smallflower flatsedge; [11]
  S. Flatsedge plant response rating: 0
Smallflower flatsedge; [12]
  S. Flatsedge plant response rating: 0
Duck salad; [9]
  Ducksalad plant response rating: 0
Duck salad; [10]
  Ducksalad plant response rating: 0
Duck salad; [11]
  Ducksalad plant response rating: 0
Duck salad; [12]
  Ducksalad plant response rating: 0
bamyardgrass; [9]
  Barnyardgrass plant response rating: 0
bamyardgrass; [10]
  Barnyardgrass plant response rating: 0
bamyardgrass; [11]
  Barnyardgrass plant response rating: 0
bamyardgrass; [12]
  Barnyardgrass plant response rating: 0
